Data taken from the NIST ThermoML archive (doi:10.1021/acs.jced.8b00975).
± gives the expanded uncertainty stated by the source.

Assay: xn = mol fraction of the nth substance listed
Conditions: Liquid, Vibrating tube method

C=C(C)C(=O)OCCN(C)C [2-(dimethylamino)ethyl methylpropenoate] + CCCO
mass density [kg/m3]
Conditions	100 kPa	5000 kPa	10000 kPa	15000 kPa	20000 kPa	25000 kPa	30000 kPa	35000 kPa
293.15 K, x1 = 0.03	813.1 ± 0.52	817.13 ± 0.52	820.85 ± 0.53	824.33 ± 0.55	827.64 ± 0.56	830.83 ± 0.57	833.97 ± 0.58	837.12 ± 0.59
293.15 K, x1 = 0.0598	822.05 ± 0.52	825.95 ± 0.52	829.65 ± 0.53	833.15 ± 0.54	836.5 ± 0.55	839.72 ± 0.57	842.82 ± 0.58	845.84 ± 0.59
293.15 K, x1 = 0.0998	832.86 ± 0.52	836.81 ± 0.52	840.49 ± 0.53	843.94 ± 0.54	847.22 ± 0.55	850.38 ± 0.56	853.46 ± 0.57	856.5 ± 0.58
293.15 K, x1 = 0.1502	845.14 ± 0.52	849.07 ± 0.52	852.65 ± 0.53	856.05 ± 0.54	859.3 ± 0.55	862.47 ± 0.56	865.58 ± 0.57	868.68 ± 0.58
293.15 K, x1 = 0.2003	855.86 ± 0.52	859.68 ± 0.52	863.26 ± 0.53	866.65 ± 0.54	869.89 ± 0.55	873.06 ± 0.55	876.18 ± 0.56	879.33 ± 0.57
293.15 K, x1 = 0.2502	865.17 ± 0.52	868.95 ± 0.52	872.5 ± 0.53	875.88 ± 0.54	879.12 ± 0.54	882.27 ± 0.55	885.37 ± 0.56	888.47 ± 0.57
293.15 K, x1 = 0.3013	873.68 ± 0.52	877.48 ± 0.52	881.04 ± 0.53	884.41 ± 0.54	887.65 ± 0.54	890.79 ± 0.55	893.88 ± 0.56	896.98 ± 0.56
293.15 K, x1 = 0.3992	887.54 ± 0.52	891.31 ± 0.53	894.85 ± 0.53	898.21 ± 0.54	901.43 ± 0.54	904.58 ± 0.55	907.69 ± 0.55	910.81 ± 0.56
293.15 K, x1 = 0.4482	893.36 ± 0.52	897.13 ± 0.53	900.67 ± 0.53	904.04 ± 0.54	907.28 ± 0.54	910.43 ± 0.55	913.53 ± 0.55	916.64 ± 0.56
293.15 K, x1 = 0.4998	898.97 ± 0.52	902.77 ± 0.53	906.35 ± 0.53	909.73 ± 0.54	912.96 ± 0.54	916.08 ± 0.55	919.13 ± 0.55	922.15 ± 0.56
293.15 K, x1 = 0.5509	903.96 ± 0.52	907.77 ± 0.53	911.33 ± 0.53	914.67 ± 0.54	917.88 ± 0.54	921 ± 0.55	924.1 ± 0.55	927.23 ± 0.56
293.15 K, x1 = 0.5986	908.27 ± 0.53	912.04 ± 0.53	915.56 ± 0.53	918.89 ± 0.54	922.08 ± 0.54	925.2 ± 0.55	928.3 ± 0.55	931.47 ± 0.55
293.15 K, x1 = 0.699	916.1 ± 0.53	919.83 ± 0.53	923.35 ± 0.54	926.69 ± 0.54	929.91 ± 0.55	933.05 ± 0.55	936.14 ± 0.55	939.24 ± 0.56
293.15 K, x1 = 0.7994	922.7 ± 0.53	926.51 ± 0.54	930.05 ± 0.54	933.38 ± 0.54	936.55 ± 0.55	939.65 ± 0.55	942.73 ± 0.55	945.86 ± 0.56
293.15 K, x1 = 0.8519	925.73 ± 0.53	929.5 ± 0.54	933.03 ± 0.54	936.39 ± 0.55	939.61 ± 0.55	942.75 ± 0.55	945.87 ± 0.56	949.02 ± 0.56
293.15 K, x1 = 0.8992	928.25 ± 0.54	931.98 ± 0.54	935.56 ± 0.55	938.89 ± 0.55	942.14 ± 0.55	945.3 ± 0.56	948.43 ± 0.56	951.54 ± 0.56
293.15 K, x1 = 0.9284	929.69 ± 0.54	933.42 ± 0.54	936.97 ± 0.55	940.36 ± 0.55	943.63 ± 0.55	946.83 ± 0.56	949.98 ± 0.56	953.12 ± 0.56
293.15 K, x1 = 0.9587	931.16 ± 0.54	934.9 ± 0.54	938.45 ± 0.55	941.84 ± 0.55	945.11 ± 0.56	948.29 ± 0.56	951.43 ± 0.56	954.55 ± 0.56
303.15 K, x1 = 0.0307	805.44 ± 0.52	809.69 ± 0.53	813.63 ± 0.54	817.3 ± 0.55	820.75 ± 0.56	824.03 ± 0.57	827.2 ± 0.59	830.29 ± 0.6
303.15 K, x1 = 0.0599	813.96 ± 0.52	818.16 ± 0.53	822.06 ± 0.53	825.7 ± 0.55	829.13 ± 0.56	832.41 ± 0.57	835.6 ± 0.58	838.73 ± 0.59
303.15 K, x1 = 0.1003	824.72 ± 0.52	828.9 ± 0.52	832.79 ± 0.53	836.41 ± 0.54	839.84 ± 0.55	843.1 ± 0.56	846.24 ± 0.58	849.31 ± 0.59
303.15 K, x1 = 0.201	847.03 ± 0.52	851.16 ± 0.53	854.99 ± 0.53	858.56 ± 0.54	861.95 ± 0.55	865.23 ± 0.56	868.44 ± 0.57	871.66 ± 0.58
303.15 K, x1 = 0.3004	864.34 ± 0.52	868.29 ± 0.53	872.06 ± 0.53	875.68 ± 0.54	879.16 ± 0.55	882.5 ± 0.55	885.74 ± 0.56	888.87 ± 0.57
303.15 K, x1 = 0.4007	878.29 ± 0.52	882.23 ± 0.53	885.98 ± 0.53	889.57 ± 0.54	893.03 ± 0.55	896.41 ± 0.55	899.73 ± 0.56	903.03 ± 0.56
303.15 K, x1 = 0.4507	884.12 ± 0.52	888.05 ± 0.53	891.79 ± 0.53	895.39 ± 0.54	898.86 ± 0.55	902.25 ± 0.55	905.59 ± 0.56	908.92 ± 0.56
303.15 K, x1 = 0.4985	889.33 ± 0.52	893.25 ± 0.53	896.99 ± 0.54	900.58 ± 0.54	904.06 ± 0.55	907.45 ± 0.55	910.79 ± 0.56	914.12 ± 0.56
303.15 K, x1 = 0.5535	894.64 ± 0.53	898.56 ± 0.53	902.3 ± 0.54	905.89 ± 0.54	909.38 ± 0.55	912.79 ± 0.55	916.16 ± 0.56	919.52 ± 0.56
303.15 K, x1 = 0.5907	897.88 ± 0.53	901.87 ± 0.53	905.63 ± 0.54	909.22 ± 0.54	912.68 ± 0.55	916.07 ± 0.55	919.43 ± 0.56	922.81 ± 0.56
303.15 K, x1 = 0.7009	906.35 ± 0.53	910.27 ± 0.53	914.01 ± 0.54	917.6 ± 0.54	921.09 ± 0.55	924.52 ± 0.55	927.94 ± 0.56	931.39 ± 0.56
303.15 K, x1 = 0.8	912.95 ± 0.53	916.83 ± 0.54	920.56 ± 0.54	924.17 ± 0.55	927.7 ± 0.55	931.16 ± 0.56	934.59 ± 0.56	938.01 ± 0.56
303.15 K, x1 = 0.9043	918.6 ± 0.54	922.52 ± 0.54	926.3 ± 0.55	929.96 ± 0.55	933.53 ± 0.56	937.03 ± 0.56	940.48 ± 0.56	943.91 ± 0.57
303.15 K, x1 = 0.9269	919.6 ± 0.54	923.57 ± 0.54	927.36 ± 0.55	931 ± 0.55	934.55 ± 0.56	938.03 ± 0.56	941.51 ± 0.56	945.01 ± 0.57
303.15 K, x1 = 0.9551	921.07 ± 0.54	924.99 ± 0.55	928.75 ± 0.55	932.41 ± 0.55	935.97 ± 0.56	939.47 ± 0.56	942.94 ± 0.56	946.41 ± 0.57
313.15 K, x1 = 0.0303	797.13 ± 0.52	801.51 ± 0.53	805.58 ± 0.54	809.4 ± 0.55	813.02 ± 0.56	816.51 ± 0.58	819.93 ± 0.59	823.33 ± 0.61
313.15 K, x1 = 0.0602	805.6 ± 0.52	809.95 ± 0.53	814.02 ± 0.54	817.86 ± 0.55	821.5 ± 0.56	825 ± 0.57	828.39 ± 0.59	831.72 ± 0.6
313.15 K, x1 = 0.1007	816.21 ± 0.52	820.42 ± 0.53	824.41 ± 0.54	828.2 ± 0.55	831.83 ± 0.56	835.35 ± 0.57	838.78 ± 0.58	842.17 ± 0.59
313.15 K, x1 = 0.2003	838.07 ± 0.52	842.22 ± 0.53	846.16 ± 0.53	849.93 ± 0.54	853.55 ± 0.55	857.04 ± 0.56	860.44 ± 0.57	863.76 ± 0.58
313.15 K, x1 = 0.2989	854.98 ± 0.52	859.16 ± 0.53	863.14 ± 0.53	866.94 ± 0.54	870.58 ± 0.55	874.08 ± 0.56	877.48 ± 0.57	880.8 ± 0.57
313.15 K, x1 = 0.4005	869.05 ± 0.52	873.2 ± 0.53	877.16 ± 0.54	880.94 ± 0.54	884.58 ± 0.55	888.1 ± 0.56	891.52 ± 0.56	894.87 ± 0.57
313.15 K, x1 = 0.4513	875.07 ± 0.52	879.17 ± 0.53	883.11 ± 0.54	886.91 ± 0.54	890.57 ± 0.55	894.1 ± 0.56	897.51 ± 0.56	900.82 ± 0.57
313.15 K, x1 = 0.5026	880.52 ± 0.52	884.58 ± 0.53	888.5 ± 0.54	892.29 ± 0.54	895.96 ± 0.55	899.51 ± 0.56	902.95 ± 0.56	906.3 ± 0.57
313.15 K, x1 = 0.5521	885.29 ± 0.53	889.39 ± 0.53	893.33 ± 0.54	897.12 ± 0.54	900.78 ± 0.55	904.32 ± 0.55	907.74 ± 0.56	911.06 ± 0.57
313.15 K, x1 = 0.6025	889.7 ± 0.53	893.77 ± 0.53	897.71 ± 0.54	901.52 ± 0.54	905.22 ± 0.55	908.79 ± 0.55	912.25 ± 0.56	915.59 ± 0.56
313.15 K, x1 = 0.6976	897.07 ± 0.53	901.19 ± 0.53	905.15 ± 0.54	908.97 ± 0.55	912.65 ± 0.55	916.22 ± 0.56	919.67 ± 0.56	923.02 ± 0.56
313.15 K, x1 = 0.8037	903.96 ± 0.53	908.07 ± 0.54	912.04 ± 0.54	915.87 ± 0.55	919.56 ± 0.55	923.14 ± 0.56	926.61 ± 0.56	929.99 ± 0.57
313.15 K, x1 = 0.9043	909.46 ± 0.54	913.62 ± 0.54	917.61 ± 0.55	921.46 ± 0.55	925.17 ± 0.56	928.79 ± 0.56	932.32 ± 0.57	935.78 ± 0.57
313.15 K, x1 = 0.933	910.82 ± 0.54	914.96 ± 0.54	918.95 ± 0.55	922.81 ± 0.56	926.56 ± 0.56	930.22 ± 0.56	933.79 ± 0.57	937.29 ± 0.57
313.15 K, x1 = 0.9605	912.22 ± 0.54	916.36 ± 0.55	920.35 ± 0.55	924.21 ± 0.56	927.96 ± 0.56	931.63 ± 0.57	935.23 ± 0.57	938.78 ± 0.57
